Experiments:
[1] = (§1) The drug is tested on Z-028 corresponding to mouse gut metagenome with ENA study accession number: PRJEB37062 and ENA sample accession number: ERS12561827 for biotransformation under anaerobic condition. The drug concentrations were measured over 9 timepoints collected between 0 and 24 hours of incubation by liquid-chromatography-coupled mass spectrometry (LC–MS); details: 2 µM
[2] = as §1, with “Z-025” for “Z-028”, “rabbit” for “mouse”, “ERS12561824” for “ERS12561827”; details: 2 µM
[3] = as §1, with “Z-022” for “Z-028”, “ERS12561821” for “ERS12561827”; details: 2 µM
[4] = as §1, with “Z-013” for “Z-028”, “rabbit” for “mouse”, “ERS12561813” for “ERS12561827”; details: 2 µM
[5] = as §1, with “Z-012” for “Z-028”, “to” for “to mouse gut”, “ERS12561812” for “ERS12561827”; details: 2 µM
[6] = as §1, with “Z-011” for “Z-028”, “ERS12561811” for “ERS12561827”; details: 2 µM
[7] = as §1, with “Z-006” for “Z-028”, “ERS12561806” for “ERS12561827”; details: 2 µM
[8] = as §1, with “Z-004” for “Z-028”, “to” for “to mouse gut”, “ERS12561804” for “ERS12561827”; details: 2 µM
[9] = as §1, with “WLS-310” for “Z-028”, “human” for “mouse”, “ERS12561785” for “ERS12561827”; details: 2 µM
[10] = as §1, with “WLS-240” for “Z-028”, “human” for “mouse”, “ERS12561773” for “ERS12561827”; details: 2 µM
[11] = as §1, with “WLS-086” for “Z-028”, “human” for “mouse”, “ERS12561752” for “ERS12561827”; details: 2 µM
[12] = as §1, with “WLS-038” for “Z-028”, “human” for “mouse”, “ERS12561745” for “ERS12561827”; details: 2 µM
[13] = human gut metagenome, 24 h, 2 µM
[14] = human gut metagenome, 24 h, 2 µM; remark: listed apart in the source
[15] = human gut metagenome, 24 h, 2 µM; remark: listed apart in the source
[16] = human gut metagenome, 24 h, 2 µM; remark: listed apart in the source
[17] = human gut metagenome, 24 h, 2 µM; remark: listed apart in the source
[18] = human gut metagenome, 24 h, 2 µM; remark: listed apart in the source
[19] = human gut metagenome, 24 h, 2 µM; remark: listed apart in the source
[20] = as §1, with “Z-017” for “Z-028”, “ERS12561816” for “ERS12561827”; details: 2 µM
Note: call rule not given here.

| SMILES | Bacterial Biotransformation [1] | Bacterial Biotransformation [2] | Bacterial Biotransformation [3] | Bacterial Biotransformation [4] | Bacterial Biotransformation [5] | Bacterial Biotransformation [6] | Bacterial Biotransformation [7] | Bacterial Biotransformation [8] | Bacterial Biotransformation [9] | Bacterial Biotransformation [10] | Bacterial Biotransformation [11] | Bacterial Biotransformation [12] | Bacterial Biotransformation [13] | Bacterial Biotransformation [14] | Bacterial Biotransformation [15] | Bacterial Biotransformation [16] | Bacterial Biotransformation [17] | Bacterial Biotransformation [18] | Bacterial Biotransformation [19] | Bacterial Biotransformation [20] |
| --- | --- | --- | --- | --- | --- | --- | --- | --- | --- | --- | --- | --- | --- | --- | --- | --- | --- | --- | --- | --- |
| CN1CCC[C@@H]1CCO[C@](C)(c1ccccc1)c1ccc(Cl)cc1.O=C(O)/C=C/C(=O)O [CLEMASTINE FUMARATE] | Compound NOT metabolized | Compound NOT metabolized | Compound NOT metabolized | Compound NOT metabolized | Compound NOT metabolized | Compound NOT metabolized | Compound NOT metabolized | Compound NOT metabolized | Compound metabolized | Compound NOT metabolized | Compound metabolized | Compound metabolized | Compound metabolized | Compound metabolized | Compound metabolized | Compound metabolized | Compound NOT metabolized | Compound metabolized | Compound NOT metabolized | – |
| COC1=C(OC)C(=O)C(CCCCCCCCCCO)=C(C)C1=O [IDEBENONE] | Compound metabolized | Compound metabolized | Compound NOT metabolized | Compound metabolized | Compound metabolized | Compound metabolized | Compound metabolized | Compound NOT metabolized | Compound metabolized | – | – | Compound metabolized | Compound metabolized | – | Compound metabolized | Compound NOT metabolized | Compound metabolized | – | Compound metabolized | Compound NOT metabolized |
| CC(=O)O[C@H]1C(=O)[C@@]2(C)[C@H]([C@H](OC(=O)c3ccccc3)[C@]3(O)C[C@H](OC(=O)[C@H](O)[C@@H](NC(=O)c4ccccc4)c4ccccc4)C(C)=C1C3(C)C)[C@]1(OC(C)=O)CO[C@@H]1C[C@@H]2O [PACLITAXEL] | Compound metabolized | Compound metabolized | Compound metabolized | Compound metabolized | Compound NOT metabolized | Compound metabolized | Compound NOT metabolized | Compound NOT metabolized | Compound NOT metabolized | Compound NOT metabolized | Compound NOT metabolized | Compound metabolized | – | – | – | Compound NOT metabolized | Compound metabolized | Compound metabolized | Compound NOT metabolized | Compound NOT metabolized |
| CN1[C@@H]2CC[C@H]1C[C@@H](OC(=O)[C@H](CO)c1ccccc1)C2 [HYOSCYAMINE] | Compound NOT metabolized | Compound NOT metabolized | Compound NOT metabolized | Compound NOT metabolized | Compound NOT metabolized | – | – | Compound NOT metabolized | Compound metabolized | Compound metabolized | Compound metabolized | – | Compound metabolized | Compound metabolized | – | – | Compound NOT metabolized | – | Compound NOT metabolized | Compound NOT metabolized |
| CCCCCNC(=N)N/N=C/c1c[nH]c2ccc(OC)cc12.O=C(O)/C=C\C(=O)O [TEGASEROD MALEATE] | Compound NOT metabolized | – | Compound NOT metabolized | Compound NOT metabolized | Compound NOT metabolized | Compound NOT metabolized | Compound NOT metabolized | Compound NOT metabolized | Compound NOT metabolized | Compound NOT metabolized | Compound NOT metabolized | – | – | – | Compound metabolized | Compound NOT metabolized | – | Compound NOT metabolized | Compound NOT metabolized | Compound NOT metabolized |
| CSc1ccc2c(c1)C(N1CCN(C)CC1)Cc1ccccc1S2.O=C(O)/C=C\C(=O)O (stereo not drawn) | Compound NOT metabolized | – | Compound metabolized | Compound metabolized | Compound NOT metabolized | Compound metabolized | Compound metabolized | Compound metabolized | – | Compound NOT metabolized | Compound metabolized | Compound NOT metabolized | – | Compound NOT metabolized | Compound NOT metabolized | – | – | Compound NOT metabolized | Compound NOT metabolized | – |
| C#C[C@]1(OC(C)=O)CC[C@H]2[C@@H]3CCC4=CC(=O)CC[C@@H]4[C@H]3CC[C@@]21C [NORETHINDRONE ACETATE] | Compound metabolized | Compound metabolized | Compound metabolized | Compound metabolized | – | Compound metabolized | Compound metabolized | – | – | Compound metabolized | Compound NOT metabolized | Compound metabolized | – | – | – | Compound metabolized | Compound metabolized | Compound metabolized | Compound metabolized | Compound metabolized |
| Cc1cc2c(s1)Nc1ccccc1N=C2N1CCN(C)CC1 [OLANZAPINE] | Compound NOT metabolized | Compound metabolized | Compound NOT metabolized | Compound NOT metabolized | Compound NOT metabolized | Compound NOT metabolized | Compound NOT metabolized | Compound metabolized | Compound NOT metabolized | Compound NOT metabolized | – | Compound NOT metabolized | Compound NOT metabolized | Compound metabolized | Compound NOT metabolized | Compound NOT metabolized | Compound NOT metabolized | Compound metabolized | – | Compound NOT metabolized |
| CCOC(=O)[C@H](CCc1ccccc1)N[C@@H](C)C(=O)N1CCC[C@H]1C(=O)O.O=C(O)/C=C\C(=O)O [ENALAPRIL MALEATE] | Compound NOT metabolized | Compound NOT metabolized | Compound NOT metabolized | – | – | – | Compound NOT metabolized | Compound NOT metabolized | Compound NOT metabolized | Compound NOT metabolized | Compound NOT metabolized | Compound NOT metabolized | Compound NOT metabolized | Compound NOT metabolized | Compound NOT metabolized | Compound NOT metabolized | Compound NOT metabolized | Compound NOT metabolized | Compound NOT metabolized | – |
